Assay results taken from ChEMBL document CHEMBL4680107, “2-Aminopyridine-Based Mitogen-Activated Protein Kinase Kinase Kinase Kinase 4 (MAP4K4) Inhibitors: Assessment of Mechanism-Based Safety” (J Med Chem, 2018).

Tests used:
Type in all cases: organism-based
Conditions in all cases: in vivo
[1] = Toxicity in telemetered rat assessed as induction of weight loss at 25 mg/kg, po BID
[2] = Toxicity in telemetered rat assessed as increase in body temperature at 25 mg/kg, po BID
[3] = Toxicity in telemetered rat assessed as increase in maximal heart rate at 25 mg/kg, po BID

For `Nc1ncc(-c2cnc(N)c(-c3ccc(Cl)cc3)c2)cn1`, which Activity [1] is on record?
Its Activity is 7%.

What about the T [2] of the same molecule?
Its T is 0.4 °C.

What about the Activity [3] of the same molecule?
The Activity was 25 bpm.
